Laboratory results reported in ChEMBL document CHEMBL1201862, “PubChem BioAssay data set” (2004).
Where a name gives a salt, the structure may show the parent alone.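 Tested at 5 concentrations; 48 h exposure; 96-well plates; endpoints linearly interpolated, else capped at highest concentration. At the GI50, growth is halved.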 Calls of active or inactive are those of the source. Rule as the data show it: active = GI50 up to about 1.1 µM and inactive = higher. Non-standard residues stand in square brackets, D forms with d. Residues, ends and D or L forms follow the SMILES beside them. ξ: configuration not given here. *: point of attachment. X18 = COC1=CC(=O)N(C(=O)C(O*)C(C)C)C1Cc1ccccc1; ξNMe2Val = CC(C)C(C(=O)*)N(C)C; NMeV = CN[CH](C(=O)O)C(C)C

Key:
Assay in all cases: NCI anticancer screen, dose series, 48 h
A549 = system: A549
ACHN = system: ACHN
DMS-273 = system: DMS-273
DU-145 = system: DU-145
HCC 2998 = system: HCC 2998
HL-60 = system: HL-60
HT-29 = system: HT-29
K562 = system: K562
LXFL 529 = system: LXFL 529
MDA-MB-231 = system: MDA-MB-231
MDA-N = system: MDA-N
MOLT-4 = system: MOLT-4
RXF 393 = system: RXF 393
SF-295 = system: SF-295
SK-OV-3 = system: SK-OV-3
SW-620 = system: SW-620
T47D = system: T47D
TK-10 = system: TK-10
UACC-257 = system: UACC-257
XF498 = system: XF498

Structure (SMILES) | GI50 (A549) | GI50 (ACHN) | GI50 (DMS-273) | GI50 (DU-145) | GI50 (HCC 2998) | GI50 (HL-60) | GI50 (HT-29) | GI50 (K562) | GI50 (LXFL 529) | GI50 (MDA-MB-231) | GI50 (MDA-N) | GI50 (MOLT-4) | GI50 (RXF 393) | GI50 (SF-295) | GI50 (SK-OV-3) | GI50 (SW-620) | GI50 (T47D) | GI50 (TK-10) | GI50 (UACC-257) | GI50 (XF498)
COC1=CC(=O)N(C(=O)C(OC(=O)C2CCCN2C(=O)C2CCCN2C(=O)C(C(C)C)N(C)C(=O)C(NC(=O)C(C(C)C)N(C)C)C(C)C)C(C)C)C1Cc1ccccc1 (centres undefined) (ξNMe2Val-V[NMeV]PP-X18; configuration not given here) | 0.00955 µM (active) | 0.00931 µM (active) | 0.00103 µM (active) | 0.000618 µM (active) | 0.00205 µM (active) | 0.000171 µM (active) | 0.000573 µM (active) | 0.000349 µM (active) | 0.00119 µM (active) | 0.00146 µM (active) | 3.61e-05 µM (active) | 0.00102 µM (active) | 0.00164 µM (active) | 0.00161 µM (active) | 0.00485 µM (active) | 0.000469 µM (active) | < 10 nM (active) | 0.00682 µM (active) | 0.0025 µM (active) | 0.000308 µM (active)
O=C1c2ccccc2C(=O)c2sc(Nc3ccc(Cl)cc3)nc21 | 8.63 µM (inactive) | 1.57 µM (inactive) | 1.97 µM (inactive) | – | 4.32 µM (inactive) | 0.1 µM (active) | 4.15 µM (inactive) | 1.96 µM (inactive) | 1.69 µM (inactive) | – | – | 0.762 µM (active) | 1.53 µM (inactive) | 5.53 µM (inactive) | 18.9 µM (inactive) | 1.09 µM (active) | – | 5.89 µM (inactive) | 1.75 µM (inactive) | 2.16 µM (inactive)
C[n+]1c2ccccc2c(CNC(CCC(N)=O)C(=O)O)c2ccccc21 (centres undefined) | 4.38 µM (inactive) | 1.76 µM (inactive) | 1.21 µM (inactive) | 5.52 µM (inactive) | 4.24 µM (inactive) | 0.239 µM (active) | 1.22 µM (inactive) | 0.34 µM (active) | 0.817 µM (active) | 5.36 µM (inactive) | 2.87 µM (inactive) | 0.998 µM (active) | 1.99 µM (inactive) | 6.71 µM (inactive) | 6.21 µM (inactive) | 0.506 µM (active) | 22.1 nM (active) | 1.53 µM (inactive) | 4.31 µM (inactive) | 2 µM (inactive)
Cc1ccc(N(C(=O)CC(=O)NN)C(=O)c2ccccc2Cl)cc1 | > 100 µM (inactive) | > 100 µM (inactive) | > 100 µM (inactive) | – | > 100 µM (inactive) | > 100 µM (inactive) | > 100 µM (inactive) | > 100 µM (inactive) | > 100 µM (inactive) | – | – | > 100 µM (inactive) | > 100 µM (inactive) | > 100 µM (inactive) | > 100 µM (inactive) | > 100 µM (inactive) | – | – | > 100 µM (inactive) | > 100 µM (inactive)
COC(=O)CC1NC(=O)[C@@H]1C(C)O (some centres undefined) | > 100 µM (inactive) | > 100 µM (inactive) | > 100 µM (inactive) | – | > 100 µM (inactive) | > 100 µM (inactive) | > 100 µM (inactive) | > 100 µM (inactive) | > 100 µM (inactive) | – | – | > 100 µM (inactive) | > 100 µM (inactive) | > 100 µM (inactive) | – | > 100 µM (inactive) | – | > 100 µM (inactive) | > 100 µM (inactive) | > 100 µM (inactive)
CC(C)(C)[Si](C)(C)O/N=C\c1cccc(O[Si](C)(C)C(C)(C)C)c1 | 17.8 µM (inactive) | 17.9 µM (inactive) | 17.7 µM (inactive) | – | 18.3 µM (inactive) | 18.3 µM (inactive) | 16.5 µM (inactive) | 18.1 µM (inactive) | 15.7 µM (inactive) | – | – | 18.1 µM (inactive) | 19.6 µM (inactive) | 18 µM (inactive) | 21 µM (inactive) | 18.5 µM (inactive) | – | 24.5 µM (inactive) | 21.9 µM (inactive) | 18.5 µM (inactive)
Cc1n[nH]c(N)c1C(N)=O | > 100 µM (inactive) | > 100 µM (inactive) | > 100 µM (inactive) | – | > 100 µM (inactive) | > 100 µM (inactive) | > 100 µM (inactive) | > 100 µM (inactive) | > 100 µM (inactive) | – | – | > 100 µM (inactive) | 21.5 µM (inactive) | > 100 µM (inactive) | > 100 µM (inactive) | > 100 µM (inactive) | – | > 100 µM (inactive) | > 100 µM (inactive) | > 100 µM (inactive)
COC(=O)C(Cc1nc2ccc(Cl)cc2nc1O)C(=O)C(=O)Nc1ccccc1[N+](=O)[O-] (centres undefined) | > 100 µM (inactive) | > 100 µM (inactive) | > 100 µM (inactive) | – | > 100 µM (inactive) | > 100 µM (inactive) | > 100 µM (inactive) | > 100 µM (inactive) | > 100 µM (inactive) | – | – | > 100 µM (inactive) | > 100 µM (inactive) | > 100 µM (inactive) | > 100 µM (inactive) | > 100 µM (inactive) | – | > 100 µM (inactive) | > 100 µM (inactive) | > 100 µM (inactive)
COC(=O)CC(c1ccccc1)C1(c2ccccc2)SCCS1 (centres undefined) | 272 µM (inactive) | > 290 µM (inactive) | 104 µM (inactive) | – | > 290 µM (inactive) | 141 µM (inactive) | 222 µM (inactive) | 133 µM (inactive) | 92.7 µM (inactive) | – | – | 58.1 µM (inactive) | > 290 µM (inactive) | > 290 µM (inactive) | > 290 µM (inactive) | 232 µM (inactive) | – | > 290 µM (inactive) | > 290 µM (inactive) | > 290 µM (inactive)
CC(=O)N(O)CCCCCNC(=O)CCC(=O)N(O)CCCCCNC(=O)CCC(=O)N(O)CCCCCN [DEFEROXAMINE HYDROCHLORIDE] | 14.5 µM (inactive) | 12.5 µM (inactive) | 28.2 µM (inactive) | 13.6 µM (inactive) | 55.7 µM (inactive) | 31 µM (inactive) | 36.6 µM (inactive) | 57.5 µM (inactive) | 36.4 µM (inactive) | > 100 µM (inactive) | 53.2 µM (inactive) | 11.2 µM (inactive) | 57.4 µM (inactive) | 7.38 µM (inactive) | 38.2 µM (inactive) | 29.1 µM (inactive) | > 100000 nM (inactive) | 42 µM (inactive) | 50.4 µM (inactive) | > 100 µM (inactive)
OCC(O)COc1c(Cl)cc(Cl)cc1Cl (centres undefined) | > 100 µM (inactive) | > 100 µM (inactive) | > 100 µM (inactive) | – | > 100 µM (inactive) | > 100 µM (inactive) | > 100 µM (inactive) | > 46.6 µM (inactive) | > 90.8 µM (inactive) | – | – | > 31.6 µM (inactive) | > 100 µM (inactive) | > 100 µM (inactive) | > 100 µM (inactive) | > 34 µM (inactive) | – | > 100 µM (inactive) | > 100 µM (inactive) | > 100 µM (inactive)
CN(c1n[n+]2c(-c3ccccc3)csc2s1)c1n[n+]2c(-c3ccccc3)csc2s1 | > 100 µM (inactive) | > 100 µM (inactive) | > 100 µM (inactive) | – | > 100 µM (inactive) | 47.6 µM (inactive) | > 100 µM (inactive) | 42.8 µM (inactive) | 87.3 µM (inactive) | – | – | > 100 µM (inactive) | > 100 µM (inactive) | > 100 µM (inactive) | > 100 µM (inactive) | > 100 µM (inactive) | – | > 100 µM (inactive) | > 100 µM (inactive) | > 100 µM (inactive)
CCC(O)(c1ccc(OC)cc1)C(c1ccc(OCc2ccccc2)cc1)c1ccc(OCc2ccccc2)cc1 (centres undefined) | > 100 µM (inactive) | > 100 µM (inactive) | > 100 µM (inactive) | – | > 100 µM (inactive) | > 100 µM (inactive) | > 100 µM (inactive) | > 100 µM (inactive) | > 100 µM (inactive) | – | – | > 100 µM (inactive) | > 100 µM (inactive) | > 100 µM (inactive) | > 100 µM (inactive) | > 100 µM (inactive) | – | > 100 µM (inactive) | > 100 µM (inactive) | > 100 µM (inactive)
CC1=Nc2c(ccc3c2C(=O)c2ccccc2C3=O)NC(c2ccncc2)C1 (centres undefined) | 13.3 µM (inactive) | 6.75 µM (inactive) | > 10 µM (inactive) | – | > 10 µM (inactive) | 0.798 µM (active) | > 10 µM (inactive) | > 100 µM (inactive) | > 10 µM (inactive) | – | – | 3.73 µM (inactive) | > 10 µM (inactive) | > 10 µM (inactive) | 6.49 µM (inactive) | 52.5 µM (inactive) | – | > 100 µM (inactive) | > 10 µM (inactive) | > 100 µM (inactive)
